Results published in PubChem BioAssay (NCI).
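Five compound concentrations were applied to cells in 96-well plates for 48 hours; endpoints were derived by simple linear interpolation of the resulting dose-response curve. At the GI50, growth is halved. At the TGI there is no net growth.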

Tests used:
Test in all cases: DTP human tumour cell line panel, 48 h
[1] = system: SN12C renal
[2] = system: RPMI-8226 leukemia
[3] = system: ACHN renal
[4] = system: CAKI-1 renal
[5] = system: SK-MEL-5 melanoma
[6] = system: OVCAR-3 ovarian
[7] = system: IGROV1 ovarian
[8] = system: SNB-19 CNS
[9] = system: HOP-92 NSCLC
[10] = system: SR leukemia

For `CCOc1cc2ccc3c4cc(OC)c(OC)cc4cnc3c2cc1OCC`, the TGI [1] was over 100 µM, the TGI [2] was over 100 µM and the TGI [3] was over 100 µM. The TGI [4] was over 100 µM, the TGI [5] was over 100 µM and the TGI [6] was over 100 µM. The TGI [7] was over 100 µM and the TGI [8] was over 100 µM.
`COc1ccc(/C=N/N=C(\N)NO)c(Cl)c1O` showed a TGI [1] of over 100 µM, a TGI [2] of over 100 µM and a TGI [3] of over 100 µM. For the same compound, the TGI [4] was 54.8 µM, the TGI [9] was over 100 µM and the TGI [5] was 40.6 µM. For the same compound, the TGI [6] was over 100 µM, the TGI [7] was over 100 µM and the TGI [8] was over 100 µM.
In the case of `CC(/C=C/C(=O)c1sc(-n2nc(-c3ccccc3)cc2-c2ccccc2)nc1C)=C\c1ccccc1`, the TGI [1] was over 100 µM, the TGI [2] was over 100 µM and the TGI [3] was over 100 µM. The TGI [10] was over 100 µM, the TGI [4] was over 100 µM and the TGI [5] was over 100 µM. For the same compound, the TGI [6] was over 100 µM, the TGI [7] was over 100 µM and the TGI [8] was over 100 µM.
`CCN(CC)CC.CCOc1ccc(NC(=O)N=C=[N-])cc1.[CH-]1CCCCC1.[CH-]1CCCCC1.[CH-]1CCCCC1.[Cl-].[Sn+4]` gave a GI50 [1] of 0.0233 µM, a TGI [1] of 0.0634 µM and a GI50 [2] of 0.0199 µM. The TGI [2] was 0.064 µM, the GI50 [3] was 0.0493 µM and the TGI [3] was 0.116 µM. It also gave a GI50 [4] of 0.0282 µM, a TGI [4] of 0.0969 µM and a GI50 [9] of 0.0264 µM. For the same compound, the TGI [9] was 0.111 µM, the GI50 [5] was 0.0303 µM and the TGI [5] was 0.0941 µM. It also gave a GI50 [6] of 0.0171 µM, a TGI [6] of 0.038 µM and a GI50 [7] of 0.0342 µM. It also gave a TGI [7] of 0.115 µM, a GI50 [8] of 0.0586 µM and a TGI [8] of 0.122 µM.
Compound `COC(=O)C(Cc1cnc[nH]1)NC(=O)CNC(=O)CCCn1c(=O)c2c3ccccc3n(C)c2n2nnc(-c3ccccc3)c12` (centres undefined) has a GI50 [1] of over 100 µM, a TGI [1] of over 100 µM and a GI50 [2] of over 100 µM. It also gave a TGI [2] of over 100 µM, a GI50 [3] of over 100 µM and a TGI [3] of over 100 µM. For the same compound, the GI50 [4] was over 100 µM, the TGI [4] was over 100 µM and the GI50 [5] was over 100 µM. For the same compound, the TGI [5] was over 100 µM, the GI50 [6] was over 100 µM and the TGI [6] was over 100 µM. The GI50 [7] was 72.5 µM, the TGI [7] was over 100 µM and the GI50 [8] was over 100 µM. It also gave a TGI [8] of over 100 µM.
Work on `COCc1c(CO)cnc(C)c1OC1OC(CO)C(O)C(O)C1O` (centres undefined) yielded a TGI [1] of over 100 µM, a TGI [2] of over 100 µM and a TGI [3] of over 100 µM. It also gave a TGI [10] of over 100 µM, a TGI [4] of over 100 µM and a TGI [5] of over 100 µM. For the same compound, the TGI [6] was over 100 µM, the TGI [7] was over 100 µM and the TGI [8] was over 100 µM.
Compound `O=C(NCCO)c1cc2c(cn1)[nH]c1ccccc12` has a TGI [1] of over 100 µM, a TGI [2] of over 100 µM and a TGI [3] of over 100 µM. For the same compound, the TGI [4] was over 100 µM, the TGI [9] was over 100 µM and the TGI [5] was over 100 µM. The TGI [6] was over 100 µM, the TGI [7] was over 100 µM and the TGI [8] was over 100 µM.
`COc1c2c3ccccc3nc-2n(C)c2ccccc12` gave a GI50 [1] of 7.27 µM, a TGI [1] of 35.9 µM and a GI50 [2] of 6.04 µM. For the same compound, the TGI [2] was 24.4 µM, the GI50 [3] was 3.33 µM and the TGI [3] was 19.4 µM. For the same compound, the GI50 [10] was 7.1 µM, the TGI [10] was over 100 µM and the GI50 [4] was 19.2 µM. For the same compound, the TGI [4] was over 100 µM, the GI50 [5] was 12.8 µM and the TGI [5] was 33.1 µM. The GI50 [6] was 21 µM, the TGI [6] was over 100 µM and the GI50 [7] was 24.3 µM. It also gave a TGI [7] of over 100 µM, a GI50 [8] of 17.1 µM and a TGI [8] of over 100 µM.
In the case of `CCOC(=O)C(Cc1c[nH]c2ccc([N+](=O)[O-])cc12)(NC(C)=O)C(=O)OCC`, the GI50 [1] was 502 µM, the TGI [1] was over 1000 µM and the GI50 [3] was 151 µM. For the same compound, the TGI [3] was over 1000 µM, the GI50 [4] was 34.2 µM and the TGI [4] was over 1000 µM. The TGI [9] was over 423 µM, the GI50 [6] was 75.3 µM and the TGI [6] was over 1000 µM. It also gave a GI50 [7] of 68.7 µM, a TGI [7] of over 833 µM and a GI50 [8] of 138 µM. It also gave a TGI [8] of 598 µM.
In the case of `CC1=C(C(=O)Nc2ccccc2)C(c2ccc([N+](=O)[O-])cc2)C(C(=O)Nc2ccccc2)=C(C)N1`, the TGI [1] was 79.3 µM, the TGI [2] was 73.3 µM and the TGI [3] was over 100 µM. The TGI [10] was 45.7 µM, the TGI [9] was 60.9 µM and the TGI [5] was 61.7 µM. For the same compound, the TGI [6] was over 100 µM, the TGI [7] was over 100 µM and the TGI [8] was 32 µM.
Work on `COc1ccccc1/C=C/C(=O)c1c(O)cc2occc2c1OC` yielded a GI50 [1] of over 100 µM, a TGI [1] of over 100 µM and a GI50 [2] of 23.5 µM. It also gave a TGI [2] of over 100 µM, a GI50 [3] of 30 µM and a TGI [3] of over 100 µM. For the same compound, the GI50 [4] was over 100 µM, the TGI [4] was over 100 µM and the GI50 [9] was 2.98 µM. It also gave a TGI [9] of 26.6 µM, a GI50 [5] of over 100 µM and a TGI [5] of over 100 µM. It also gave a GI50 [6] of 47.4 µM, a TGI [6] of over 100 µM and a GI50 [7] of 26 µM. The TGI [7] was over 100 µM, the GI50 [8] was 30.8 µM and the TGI [8] was over 100 µM.
`c1ccc(N=c2snc3scc(-c4ccccc4)n23)cc1` was tested, and the TGI [1] was over 100 µM, the TGI [2] was 86.7 µM and the TGI [3] was over 100 µM. The TGI [4] was over 100 µM, the TGI [9] was 76.3 µM and the TGI [5] was 61.9 µM. It also gave a TGI [6] of 62.2 µM, a TGI [7] of over 100 µM and a TGI [8] of over 100 µM.
`C=CCCCn1ccc2ccccc21` was tested, and the TGI [1] was over 100 µM, the TGI [2] was over 100 µM and the TGI [3] was over 100 µM. The TGI [10] was over 100 µM, the TGI [9] was over 100 µM and the TGI [5] was over 100 µM. The TGI [6] was over 100 µM, the TGI [7] was over 100 µM and the TGI [8] was over 100 µM.
With `O=C1OC(c2ccccc2)=N/C1=C\c1ccc2ccccc2c1` the TGI [1] was over 100 µM, the TGI [2] was over 100 µM and the TGI [3] was over 100 µM. It also gave a TGI [4] of over 100 µM, a TGI [9] of over 100 µM and a TGI [5] of over 100 µM. The TGI [6] was over 100 µM, the TGI [7] was over 100 µM and the TGI [8] was over 100 µM.
`O=C(/C=C/c1ccc(O)c(O)c1)OC1C[C@@](O)(C(=O)O)C[C@@H](O)[C@H]1OC(=O)/C=C/c1ccc(O)c(O)c1` (some centres undefined) was tested, and the TGI [2] was over 100 µM, the TGI [3] was over 100 µM and the TGI [10] was over 100 µM. For the same compound, the TGI [9] was over 100 µM, the TGI [5] was over 100 µM and the TGI [6] was over 100 µM. The TGI [7] was over 100 µM.
`O=Cc1ccc(-c2ccc(-c3nc4ccccc4[nH]3)cc2)s1` showed a GI50 [1] of 31.6 µM, a TGI [1] of 92.2 µM and a GI50 [3] of 24.4 µM. For the same compound, the TGI [3] was 67.1 µM, the GI50 [10] was 15.6 µM and the TGI [10] was 98.7 µM. For the same compound, the GI50 [4] was 29.9 µM, the TGI [4] was 57.2 µM and the GI50 [9] was 0.152 µM. For the same compound, the TGI [9] was 28.1 µM, the GI50 [5] was 20.3 µM and the TGI [5] was 41.9 µM. It also gave a GI50 [6] of 20.9 µM, a TGI [6] of 54.1 µM and a GI50 [7] of 34.8 µM. For the same compound, the TGI [7] was over 100 µM.
Compound `COC(=O)[C@@]1(Cc2ccccc2)[C@H]2c3cc(C(=O)N4CCCC4)n(Cc4ccc(OC)c(OC)c4)c3C[C@H]2CN1C(=O)c1ccccc1` has a GI50 [1] of 9.96 µM, a TGI [1] of 24.8 µM and a GI50 [2] of 10.8 µM. The TGI [2] was 23.5 µM, the GI50 [3] was 17.8 µM and the TGI [3] was over 50 µM. For the same compound, the GI50 [4] was 14 µM, the TGI [4] was over 50 µM and the GI50 [9] was 13.3 µM. The TGI [9] was 28 µM, the GI50 [5] was 7.71 µM and the TGI [5] was 14.4 µM. The GI50 [6] was 9.03 µM, the TGI [6] was 21 µM and the GI50 [8] was 17.4 µM. For the same compound, the TGI [8] was over 50 µM.
Work on `N#CC(/C(=N\NC(=O)c1ccncc1)C(=O)Nc1ccc([N+](=O)[O-])cc1[N+](=O)[O-])c1nc(-c2ccc(Br)cc2)cs1` (centres undefined) yielded a TGI [2] of over 100 µM, a TGI [3] of over 100 µM and a TGI [4] of over 100 µM. The TGI [5] was over 100 µM, the TGI [6] was over 100 µM and the TGI [7] was over 100 µM. For the same compound, the TGI [8] was over 100 µM.
